Assay results as given in PMC7926793, “Synthesis and Biological Evaluation of 1-(Diarylmethyl)-1H-1,2,4-triazoles and 1-(Diarylmethyl)-1H-imidazoles as a Novel Class of Anti-Mitotic Agent for Activity in Breast Cancer” (Pharmaceuticals, 2021).
“And” between values parts separate entries of the source, which are not always exact repeats. Equal values may be shown once. Read-outs that look alike come from different tables or passages of the source.

How the values were obtained:
[1] = tested on: NCI 60 cell line panel; experiment: NCI 60 cell line screen, panel means; assay type: cell-based, human; details: for Mean Growth percentage: 60 cell line panel, single dose 10 µM; for GI50 / LC50 (50% lethal concentration): Homo sapiens; for mean growth: 10 μM
[2] = tested on: HL-60 (TB); experiment: NCI 60 cell line screen (Leukemia); assay type: cell-based, human; details: for Growth percentage: single dose 10 µM
[3] = tested on: K-562; experiment: NCI 60 cell line screen (Leukemia); assay type: cell-based, human; details: for Growth percentage: K-562, single dose 10 µM
[4] = tested on: MOLT-4; experiment: NCI 60 cell line screen (Leukemia); assay type: cell-based, human; details: for Growth percentage: MOLT-4, single dose 10 µM
[5] = tested on: A549/ATCC; experiment: NCI 60 cell line screen (Non-Small Cell Lung Cancer); assay type: cell-based, human; details: for Growth percentage: single dose 10 µM
[6] = tested on: NCI-H226; experiment: as above; assay type: cell-based, human; details: for Growth percentage: NCI-H226, single dose 10 µM
[7] = tested on: COLO 205; experiment: NCI 60 cell line screen (Colon Cancer); assay type: cell-based, human; details: for Growth percentage: COLO 205, single dose 10 µM
[8] = tested on: HCT-116; experiment: NCI 60 cell line screen (Colon Cancer); assay type: cell-based, human; details: for Growth percentage: HCT-116, single dose 10 µM
[9] = tested on: HT29; experiment: NCI 60 cell line screen (Colon Cancer); assay type: cell-based, human; details: for Growth percentage: HT29, single dose 10 µM
[10] = tested on: KM12; experiment: NCI 60 cell line screen (Colon Cancer); assay type: cell-based, human; details: for Growth percentage: KM12, single dose 10 µM
[11] = tested on: SW-620; experiment: NCI 60 cell line screen (Colon Cancer); assay type: cell-based, human; details: for Growth percentage: SW-620, single dose 10 µM
[12] = tested on: SF-268; experiment: NCI 60 cell line screen (CNS Cancer); assay type: cell-based, human; details: for Growth percentage: SF-268, single dose 10 µM
[13] = tested on: SF295; experiment: NCI 60 cell line screen (CNS Cancer); assay type: cell-based, human; details: for Growth percentage: SF295, single dose 10 µM
[14] = tested on: SF539; experiment: NCI 60 cell line screen (CNS Cancer); assay type: cell-based, human; details: for Growth percentage: SF539, single dose 10 µM
[15] = tested on: SNB-75; experiment: NCI 60 cell line screen (CNS Cancer); assay type: cell-based, human; details: for Growth percentage: SNB-75, single dose 10 µM
[16] = tested on: U251 (AC in Table 3); experiment: NCI 60 cell line screen (CNS Cancer); assay type: cell-based, human; details: for Growth percentage: U251, single dose 10 µM
[17] = tested on: PC-3; experiment: NCI 60 cell line screen (Prostate cancer); assay type: cell-based, human; details: for Growth percentage: PC-3, single dose 10 µM
[18] = tested on: MALME-3M; experiment: NCI 60 cell line screen (Melanoma); assay type: cell-based, human; details: single dose 10 µM
[19] = tested on: MDA-MB-435; experiment: NCI 60 cell line screen (Melanoma); assay type: cell-based, human; details: for Growth percentage: MDA-MB-435, single dose 10 µM
[20] = tested on: SK-MEL-28; experiment: NCI 60 cell line screen (Melanoma); assay type: cell-based, human; details: SK-MEL-28, single dose 10 µM
[21] = tested on: SK-MEL-5; experiment: NCI 60 cell line screen (Melanoma); assay type: cell-based, human; details: for Growth percentage: SK-MEL-5, single dose 10 µM
[22] = tested on: IGROV1; experiment: NCI 60 cell line screen (Ovarian Cancer); assay type: cell-based, human; details: for Growth percentage: IGROV1, single dose 10 µM
[23] = tested on: OVCAR-8; experiment: NCI 60 cell line screen (Ovarian Cancer); assay type: cell-based, human; details: for Growth percentage: OVCAR-8, single dose 10 µM
[24] = tested on: 786-0; experiment: NCI 60 cell line screen (Renal Cancer); assay type: cell-based, human; details: for Growth percentage: 786-0, single dose 10 µM
[25] = tested on: A498; experiment: NCI 60 cell line screen (Renal Cancer); assay type: cell-based, human; details: for Growth percentage: A498, single dose 10 µM
[26] = tested on: RXF 393; experiment: NCI 60 cell line screen (Renal Cancer); assay type: cell-based, human; details: RXF 393, single dose 10 µM
[27] = tested on: TK-10; experiment: NCI 60 cell line screen (Renal Cancer); assay type: cell-based, human; details: TK-10, single dose 10 µM
[28] = tested on: UO-31; experiment: NCI 60 cell line screen (Renal Cancer); assay type: cell-based, human; details: for Growth percentage: UO-31, single dose 10 µM
[29] = tested on: MDA-MB-468; experiment: NCI 60 cell line screen (Breast Cancer); assay type: cell-based, human; details: for Growth percentage: MDA-MB-468, single dose 10 µM
[30] = molecular target: T1, CYP19 (aromatase) (Homo sapiens, UniProt P11511); experiment: cytochrome P450 assay (DBF fluorescence); details: read-out: % Inhibition at 20 µg/mL CYP19
T1 sequence (P11511 1-503): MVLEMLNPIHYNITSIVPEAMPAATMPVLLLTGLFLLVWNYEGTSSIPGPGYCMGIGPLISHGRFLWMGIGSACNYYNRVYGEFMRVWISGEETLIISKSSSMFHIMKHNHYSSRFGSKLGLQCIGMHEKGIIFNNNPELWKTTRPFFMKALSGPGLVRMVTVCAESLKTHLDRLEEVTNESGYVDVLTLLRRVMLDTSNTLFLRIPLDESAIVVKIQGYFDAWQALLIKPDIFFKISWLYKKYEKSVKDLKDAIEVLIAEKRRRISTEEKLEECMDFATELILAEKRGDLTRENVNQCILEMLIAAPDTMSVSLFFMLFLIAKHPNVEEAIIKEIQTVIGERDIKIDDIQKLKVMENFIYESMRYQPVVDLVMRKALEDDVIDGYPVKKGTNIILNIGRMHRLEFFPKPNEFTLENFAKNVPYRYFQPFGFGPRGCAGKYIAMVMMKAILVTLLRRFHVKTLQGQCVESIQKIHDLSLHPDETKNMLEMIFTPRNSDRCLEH

COc1ccc(C(c2cc(OC)c(OC)c(OC)c2)n2ccnc2)cc1O (stereo not shown) [21l, 5-((1H-Imidazol-1-yl)(3,4,5-Trimethoxyphenyl)Methyl)-2-Methoxyphenol]
Mean Growth percentage [1]: 23.38% | MID TGI (total growth inhibition) ([1]; 60 cell lines): 40700 nM | GI50 ([1]; 60 cell, CNS cancer cell lines, read-out: GI50 range): 192 to 731 nM | GI50 ([1]; 60 cell, NCI 5 dose assay, 60 cell lines, read-out: MG-MID (mean of GI50 values over all cell lines)): 234 nM | GI50 ([1]; 60 cell, breast cancer panel, read-out: GI50 range): 306 to 664 nM | LC50 (50% lethal concentration) ([1]; 60 cell, COMPARE analysis text, read-out: LC50 values (all)): > 100000 nM | LC50 (50% lethal concentration) ([1]; 60 cell lines, read-out: MID LC50): > 100000 nM | GI50 ([2]; Homo sapiens, NCI 5 dose assay): 229 nM | Growth percentage [2]: -35.94% | GI50 ([3]; Homo sapiens, K562, K-562, NCI 5 dose assay): 225 nM | Growth percentage [3]: 8.00% | GI50 ([4]; Homo sapiens, MOLT-4, NCI 5 dose assay): 565 nM | Growth percentage [4]: 14.01% | GI50 ([5]; Homo sapiens, NCI 5 dose assay): 836 nM | Growth percentage [5]: 12.80% | GI50 ([6]; Homo sapiens, NCI-H226, NCI 5 dose assay): 640 nM | Growth percentage [6]: 68.70% | Growth percentage [7]: -9.99% | GI50 ([7]; Homo sapiens, COLO 205, NCI 5 dose assay): 361 nM | Growth percentage [8]: 6.88% | GI50 ([8]; Homo sapiens, HCT-116, NCI 5 dose assay): 249 nM | Growth percentage [9]: 5.94% | GI50 ([9]; Homo sapiens, HT-29, HT29, NCI 5 dose assay): 312 nM | GI50 ([10]; Homo sapiens, KM12, NCI 5 dose assay): 389 nM | Growth percentage [10]: 17.05% | GI50 ([11]; Homo sapiens, SW-620, NCI 5 dose assay): 387 nM | Growth percentage [11]: 28.61% | GI50 ([12]; Homo sapiens, SF-268, NCI 5 dose assay): 731 nM | Growth percentage [12]: 39.64% | GI50 ([13]; Homo sapiens, SF-295, SF295, NCI 5 dose assay): 307 nM | Growth percentage [13]: -3.02% | GI50 ([14]; Homo sapiens, SF-539, SF539, NCI 5 dose assay): 217 nM | Growth percentage [14]: 9.52% | GI50 ([15]; Homo sapiens, SNB-75, NCI 5 dose assay): 192 nM | Growth percentage [15]: 56.72% | GI50 ([16]; Homo sapiens, U-251, cell line printed AC, NCI 5 dose assay): 391 nM | Growth percentage [16]: 15.52% | GI50 ([17]; Homo sapiens, PC-3, NCI 5 dose assay): 384 nM | Growth percentage [17]: 20.69% | Growth percentage [18]: 66.57% | GI50 ([19]; Homo sapiens, MDA-MB-435, NCI 5 dose assay): 119 nM | Growth percentage [19]: -29.47% | Growth percentage [20]: 62.95% | GI50 ([21]; Homo sapiens, SK-MEL-5, NCI 5 dose assay): 367 nM | Growth percentage [21]: -12.88% | GI50 ([22]; Homo sapiens, IGROV-1, IGROV1, NCI 5 dose assay): 862 nM | Growth percentage [22]: 36.42% | GI50 ([23]; Homo sapiens, OVCAR-8, NCI 5 dose assay): 450 nM | Growth percentage [23]: 10.28% | Growth percentage [24]: 19.99% | GI50 ([24]; Homo sapiens, 786-0, NCI 5 dose assay): 369 nM | Growth percentage [25]: 8.04% | GI50 ([25]; Homo sapiens, A498, NCI 5 dose assay): 304 nM | Growth percentage [26]: -5.38% | Growth percentage [27]: 52.86% | GI50 ([28]; Homo sapiens, UO-31, NCI 5 dose assay): 883 nM | Growth percentage [28]: 61.96% | GI50 ([29]; Homo sapiens, MDA-MB-468, NCI 5 dose assay): 316 nM | Growth percentage [29]: 15.64% | inhibition at 20 µg/mL [30]: 74.7%

COc1ccc(C(c2cc(OC)c(OC)c(OC)c2)N2CCCCC2)cc1 (stereo not shown) [26b, 1-((4-Methoxyphenyl)(3,4,5-Trimethoxyphenyl)Methyl)Piperidine]
Mean Growth percentage [1]: 34.17% and 34.2% | mean growth ([1]; breast cancer panel): 30.3% | mean growth ([1]; leukaemia panel): 23.5% | Growth percentage [2]: 4.36% | Growth percentage [3]: 18.04% | Growth percentage [4]: 31.54% | Growth percentage [5]: 49.14% | Growth percentage [6]: 55.46% | Growth percentage [7]: 16.14% | Growth percentage [8]: 29.08% | Growth percentage [9]: 7.93% | Growth percentage [10]: 30.23% | Growth percentage [11]: 14.47% | Growth percentage [12]: 47.22% | Growth percentage [13]: 18.75% | Growth percentage [14]: 27.71% | Growth percentage [15]: 26.61% | Growth percentage [16]: 26.12% | Growth percentage [17]: 25.08% | Growth percentage [18]: 55.25% | Growth percentage [19]: -21.79% | Growth percentage [20]: 47.22% | Growth percentage [21]: 29.49% | Growth percentage [22]: 47.13% | Growth percentage [23]: 50.11% | Growth percentage [24]: 38.84% | Growth percentage [25]: 7.32% | Growth percentage [26]: 25.99% | Growth percentage [27]: 57.56% | Growth percentage [28]: 48.76% | Growth percentage [29]: 9.32% and 9.3%
